Measurements published in patent US8207217B2 (Apotex Technologies Inc, priority 2007, dated 2012).

What was measured:
Solubility in water = format: physicochemical
Procedure: A solution of D-isoglutamyl-D-tryptophan and sodium hydroxide in water is prepared by adding solid D-isoglutamyl-D-tryptophan to sodium hydroxide solution. […] Sodium hydroxide is chosen based on the convenience in obtaining sodium hydroxide solution, however other sodium bases such as sodium hydride, sodium carbonate, sodium bicarbonate can be used. These chemicals are obvious chemical equivalents to sodium hydroxide for step (a) of the process. In step (b), the solution is filtered to remove any particulates prior to proceeding to step (c).

[1] = Speciation plot / pH of aqueous solution (Hyperquad Simulation & Speciation, experimentally determined pKas); format: physicochemical
From the text: We have determined that an advantageous salt for use in pharmaceutical preparations is the mono-sodium salt of the D-isoglutamyl-D-tryptophan, which can be formally represented by formula III, which is the predominant pharmaceutical salt at neutral pH. This takes advantage of the fact that the amino acid is a zwitterion. We have determined that the mono-sodium salt as shown in formula III is the most preferred salt in pharmaceutical preparations. The di-sodium salt of formula II is the predominant species at a pH of about 12 or above. A solution of di-sodium salt in water will have a pH of about 12 and therefore it is unsuitable for use in a liquid formulation. Adjustment of a solution of the di-sodium salt back to a pH of about 7 to about 7.4, in fact produces the mono-sodium salt as the predominant species in solution.
FIG. 1 is a speciation plot of the dipeptide H-D-iGlu-D-Trp-OH and its salt calculated with the software Hyperquad Simulation & Speciation using experimentally determined pKas of the acid and amine groups. LH2=H-D-iGlu-D-Trp-OH in diacid form represented by a compound of formula I, LH=mono carboxylic acid salt such as the mono-sodium salt represented by a compound of formula III, L=dicarboxylic acid salt such as the di-sodium salt represented by a compound of formula II, LH3=acid addition salt of H-D-iGlu-D-Trp-OH such as the mono hydrochloride salt of a compound of formula I wherein the NH2 is protonated. The X axis provides the pH of the solution. The Y axis reports the molar fraction of the species present at a particular pH. Note: % formation relative to L is the default terminology of the software. The concentration of 0.5M is used to reflect the equivalency of 1 gm of thymodepressin in 6 ml water during isolation purposes.
Depending on its concentration, the pH of a solution of di-sodium salt is more than about 8.2. A solution containing 100% of the di-sodium salt has pH of greater than about 11.5 as per speciation plot (FIG. 1). The high pH is unsuitable for dosing to human as a solution. pH adjustment from about 7.2 to about 7.4 with mineral acid introduces additional salt, for example, sodium chloride into the formulation.

[2] = oral drug in traditional tablet or capsule form; cited from earlier work
[3] = Hygroscopicity of the solid in air; format: physicochemical
Procedure: A powdery or amorphous form of a compound, intended for pharmaceutical use may give rise to manufacturing problems due to bulk density issues, hygroscopicity and variable water content that cannot be corrected by vacuum drying. D-isoglutamyl-D-tryptophan is a dipeptide and the drying of an amorphous form at elevated temperature, for example, 80-100° C. under vacuum is not recommended. Thus, there are serious difficulties experienced during the purification of the di-sodium salt of D-isoglutamyl-D-tryptophan and obtaining the pure di-sodium salt on a manufacturing scale. Further, as discussed above, there is no published procedure for its preparation.

Row | solubility in water (Solubility in water) [mg per ml] | fraction present in the mono-sodium salt form ([1]; in water at a pH of about 7.0 to about 7.4, 0.5M) | pH of a solution containing 100% of the di-sodium salt ([1]; as per speciation plot (FIG. 1)) | pH of a solution ([1]; depending on its concentration) | pH of a solution in water ([1]; solution of di-sodium salt in water) | hygroscopicity ([3]; solid form) | Compound | oral bioavailability [2] | behaviour of the freeze-dried solid in air ([3]; freeze-dried)
1 | < 20 | about 100% | – | – | – | – | N[C@H](CCC(=O)N[C@H](Cc1c[nH]c2ccccc12)C(=O)O)C(=O)O [D-isoglutamyl-D-tryptophan] | not bioavailable | –
2 | – | – | greater than 11.5 | more than 8.2 | about 12 | extremely hygroscopic | di-sodium salt of D-isoglutamyl-D-tryptophan | – | turning into a gel in a matter of minutes in air
